The values below come from patent US10035792B2, “Resorcinol derivative as HSP90 inhibitor” (priority 2015, dated 2018).

Read-outs that look alike come from different tables or passages of the source.

The target of one assay is HSP90α (Homo sapiens (Human), UniProt P07900). Briefly: Fluorescence polarization (FP) HSP90-alpha target binding assay. The text has this: In the present invention, the method of fluorescence polarization (FP) was used to establish the screening platform for HSP90-alpha inhibitors. The principle based on is to calculate fluorescence polarization values in horizontal and vertical directions by detecting molecular weight changes before and after interaction of fluorescent labeled small molecules with other molecules, in use for correlation analysis. If binding equilibria between the fluorescent labeled small molecule and the macromolecule is established, it moves slowly when excited, and the fluorescence polarization values measured will increase. If the fluorescent labeled small molecule binding to the macromolecule is replaced with other ligands, its rotational or inversional speed in free state will become faster, the emitted light would be depolarized with respect to the exciting light plane, and thus the polarized light value measured will decrease, so as to calculate the polarization value of the sample (the unit of polarization value is mP).
The fluorescent labeled small molecule used in the present invention was VER-00051001 (synthesized by reference to the synthetic method described in JMC, 2008, 51, 196-218). The reaction was carried out in a 384-well black plate, using the reaction hydrophobic protein HFB buffer: 100 mM Tris.Cl pH 7.4, 20 mM KCl, 6 mM MgCl2, 5 μg/mL BSA, 25 nM full-length Hsp90U, 10 nM VER-51001. The volume of the reaction system was […], containing 5 nM GM-BODIPY (geldanamycin), 30 nM HSP90 and the test small molecular compound or DMSO (dimethyl sulfoxide), wherein the DMSO content was 2% o. Additional two group wells were established, wherein the wells only added with HFB buffer were used as blank controls, and the wells further added with 5 nM GM-BODIPY were used as negative controls. The reaction was carried out at 4° C. for 12-16 hours. The mP value was measured by Biotek microplate reader at 485 nm of excitation wavelength and 535 nm of emission wavelength. The inhibition rate was calculated using the following equation: (Compound-free mP−Compound mP)/(Compound-free mP−negative control mP)×100%
(In general: Fluorescence polarisation rises when a labelled molecule tumbles more slowly, as on binding a larger partner.)

The subject of assay [1] is human lung cancer cell line A549. The assay is described as follows: Tumor cell growth inhibition, SRB staining, A549. The class given is cell-based. The following applies: A549, 72 h. The method, then:
The growth inhibition assay of tumor cells was detected by sulforhodamine B (SRB) staining method. The specific steps were as follows: inoculating human colon cancer cell line HCT116 and human lung cancer cell line A549 (purchased from American Type Culture Collection, ATCC) at the logarithmic growth phase into a 96-well micro culture plate at an appropriate concentration of 4000 cells/well, 100 μL for each well; after culturing overnight, adding with the compound at different concentrations (100, 10, 1, 0.1, 0.01 μM) to react for 72 h, wherein triplicate wells were set up for each concentration, and solvent control wells with the corresponding concentration and zero wells without cells were also set up. After the completion of the reaction, the culture medium was removed from the adherent cells, the later was added with 10% (w/v) trichloroacetic acid (100 μL/well) at 4° C. to fix for 1 h, and then washed five times with distilled water. After drying at room temperature, 100 μL of SRB solution (4 mg/mL, dissolved in 1% glacial acetic acid) was added into each well, followed by incubation and staining for 15 min at room temperature. The uncombined SRB was removed by washing five times with 1% glacial acetic acid. After drying at room temperature, 100 μL of 10 mM Tris solution was added into each well, and the optical density (OD) at 515 nm was measured by a […] microplate reader. The inhibition rate of the drug to tumor cell growth was calculated according to the following equation: Inhibition rate (%)=(OD of control well-OD of drug well)/OD of control well×100%. The experiment was repeated twice.
In general terms: The SRB assay estimates cell density from bound dye.

[2] abbreviates: fluorescence polarization, read-out: Target binding ability HSP90α FP IC50.

By IC50 is commonly meant the concentration that gives 50% inhibition. In general, EC50 refers to the midpoint of the concentration-response curve. On to `CCNC(=O)c1noc(-c2cc(C(C)C)c(O)cc2O)c1-c1ccc2c(c1)CCN(CCO)C2` [Example 44, 5-(2,4-dihydroxyl-5-isopropylphenyl)-N-ethyl-4-(2-(2-hydroxyethyl)-1,2,3,4-tetrahydroisoquinolin-6-yl)isoxazole-3-carboxamide], for which the IC50 on HSP90α (setting [2]) is less than 20 nM. For the same compound, the EC50 in assay [1] lay in the range of 20 to 100 nM.

The compound `CCNC(=O)c1noc(-c2cc(C(C)C)c(O)cc2O)c1-c1ccc2c(c1)C1CCC2N1CC(C)C` (stereo not shown) [Example 8, 5-(2,4-dihydroxyl-5-isopropylphenyl)-N-ethyl-4-(9-isobutyl-1,2,3,4-tetrahydro-1,4-epiminonaphth-6-yl)isoxazole-3-carboxamide] came in with an IC50 at HSP90α of 20 to 100 nM. This compound also came in with an EC50 in assay [1] of less than 20 nM.

In the case of `CC(C)c1cc(-c2noc(C(=O)NCCO)c2-c2ccc3c(c2)CCN(C)C3)c(O)cc1O` [Example 64, 3-(2,4-dihydroxyl-5-isopropylphenyl)-N-(2-hydroxylethyl)-4-(2-methyl-1,2,3,4-tetrahydroisoquinolin-6-yl)isoxazole-5-carboxamide], the IC50 at HSP90α (setting [2]) was less than 20 nM. Besides, in assay [1], the EC50 was less than 20 nM.

As to `COCCCNC(=O)c1noc(-c2cc(C(C)C)c(O)cc2O)c1-c1ccc2c(c1)CCN(C)C2` [Example 42, 5-(2,4-dihydroxyl-5-isopropylphenyl)-N-(3-methoxypropyl)-4-(2-methyl-1,2,3,4-tetrahydroisoquinolin-6-yl)isoxazole-3-carboxamide], the IC50 at HSP90α (setting [2]) is 20 to 100 nM. In assay [1], the EC50 was in the range of 20 to 100 nM.

For `CCNC(=O)c1noc(-c2cc(C(C)C)c(O)cc2O)c1-c1ccc2c(c1)CCN(CCS(=O)(=O)CC)C2` [Example 48, 5-(2,4-dihydroxyl-5-isopropylphenyl)-N-ethyl-4-(2-(2-ethylsulfonyl)ethyl-1,2,3,4-tetrahydroisoquinolin-6-yl)isoxazole-3-carboxamide], the IC50 on HSP90α (setting [2]) is 20 to 100 nM. In assay [1], this compound yielded an EC50 of 20 to 100 nM.

For `CC(C)c1cc(-c2onc(C(O)C(F)(F)F)c2-c2ccc3c(c2)CCN(C)C3)c(O)cc1O` (stereo not shown) [Example 20, 4-isopropyl-6-(4-(2-methyl-1,2,3,4-tetrahydroisoquinolin-6-yl)-3-(2,2,2-trifluoro-1-hydroxyethyl)isoxazol-5-yl)benzene-1,3-diol], at HSP90α (setting [2]), the IC50 lay in the range of 20 to 100 nM. Moreover, the EC50 in assay [1] was more than 100 nM.

Regarding `CCNC(=O)c1noc(-c2cc(C(C)C)c(O)cc2O)c1-c1nc2c(n1C)CCN(CC(C)C)C2` [Example 24, 5-(2,4-dihydroxyl-5-isopropylphenyl)-N-ethyl-4-(5-isobutyl-1-methyl-4,5,6,7-tetrahydro-1H-imidazo[4,5-c]pyridin-2-yl)isoxazole-3-carboxamide], on HSP90α (setting [2]), the IC50 was in the range of 20 to 100 nM. Further, the EC50 in assay [1] lay within 20 to 100 nM.

In the case of `CCNC(=O)c1noc(-c2cc(C(C)C)c(O)cc2O)c1-c1ccc2c(c1)CCN(CCNC(C)=O)C2` [Example 53, 4-(2-(2-acetylaminoethyl)-1,2,3,4-tetrahydroisoquinolin-6-yl)-5-(2,4-dihydroxyl-5-isopropylphenyl)-N-ethylisoxazole-3-carboxamide], the IC50 at HSP90α (setting [2]) lay in the range of 20 to 100 nM. The EC50 in assay [1] is more than 100 nM.

`CCNC(=O)c1noc(-c2cc(C(C)C)c(O)cc2O)c1-c1ccc2c(c1)CCN(CCCOC)C2` [Example 47, 5-(2,4-dihydroxyl-5-isopropylphenyl)-N-ethyl-4-(2-(3-methoxypropyl)-1,2,3,4-tetrahydroisoquinolin-6-yl)isoxazole-3-carboxamide]: at HSP90α (setting [2]), the IC50 is 20 to 100 nM. Further, in assay [1], the EC50 lay in the range of 20 to 100 nM.

For the compound `CCNC(=O)c1onc(-c2cc(C(C)C)c(O)cc2O)c1-c1ccc2c(c1)CCNCC2` [Example 28, 3-(2,4-dihydroxyl-5-isopropylphenyl)-N-ethyl-4-(2,3,4,5-tetrahydro-1H-3-benzazepin-7-yl) isoxazole-5-carboxamide], at HSP90α (setting [2]), the IC50 is less than 20 nM. For the same compound, in assay [1], the EC50 was less than 20 nM.

As to `CCNC(=O)c1noc(-c2cc(C(C)C)c(O)cc2O)c1-c1ccc2c(c1)CCN(C(=O)CN1CCOCC1)C2` [Example 60, 5-(2,4-dihydroxyl-5-isopropylphenyl)-N-ethyl-4-(2-(2-morpholino-4-yl-acetyl)-1,2,3,4-tetrahydroisoquinolin-6-yl)isoxazole-3-carboxamide], the IC50 at HSP90α (setting [2]) was 20 to 100 nM. Further, the EC50 in assay [1] is more than 100 nM.

With `CCNC(=O)c1onc(-c2cc(C(C)C)c(O)cc2O)c1-c1ccc2c(c1)CCN(C)C2` [Example 12, 3-(2,4-dihydroxyl-5-isopropylphenyl)-N-ethyl-4-(2-methyl-1,2,3,4-tetrahydroisoquinolin-6-yl)isoxazole-5-carboxamide], at HSP90α (setting [2]), the IC50 is less than 20 nM. In assay [1], this compound registered an EC50 of less than 20 nM.

`CCNC(=O)c1noc(-c2cc(C(C)C)c(O)cc2O)c1-c1ccc2c(c1)C1CCC2N1CC` (stereo not shown) [Example 6, 5-(2,4-dihydroxyl-5-isopropylphenyl)-N-ethyl-4-(9-ethyl-1,2,3,4-tetrahydro-1,4-epiminonaphth-6-yl)isoxazole-3-carboxamide] displayed an IC50 at HSP90α of 20 to 100 nM. Moreover, in assay [1], the EC50 is less than 20 nM.

For the compound `CCNC(=O)c1noc(-c2cc(C(C)C)c(O)cc2O)c1-c1ccc2c(c1)CCN(C)CC2` [Example 25, 5-(2,4-dihydroxyl-5-isopropylphenyl)-N-ethyl-4-(3-methyl-2,3,4,5-tetrahydro-1H-benzo[d]azepin-7-yl)isoxazole-3-carboxamide], the IC50 at HSP90α (setting [2]) was less than 20 nM. Besides, the EC50 in assay [1] was in the range of 20 to 100 nM.

As to `CCNC(=O)c1onc(-c2cc(C(C)C)c(O)cc2O)c1-c1ccc2c(c1)CCN(CCF)C2` [Example 71], at HSP90α (setting [2]), the IC50 is less than 20 nM. For the same compound, the EC50 in assay [1] was less than 20 nM.

In the case of `CCNC(=O)c1noc(-c2cc(C(C)C)c(O)cc2O)c1-c1ccc2c(c1)CCN(CC(C)C)C2` [Example 52, 5-(2,4-dihydroxyl-5-isopropylphenyl)-N-ethyl-4-(2-isobutyl-1,2,3,4-tetrahydroisoquinolin-6-yl)isoxazole-3-carboxamide], on HSP90α (setting [2]), the IC50 lay within 20 to 100 nM. In addition, in assay [1], the EC50 lay in the range of 20 to 100 nM.

Regarding `CC(C)c1cc(-c2onc(C(=O)NCCN(C)C)c2-c2ccc3c(c2)CCN(C)C3)c(O)cc1O` [Example 43, 5-(2,4-dihydroxyl-5-isopropylphenyl)-N-[2-(dimethylamino)ethyl]-4-(2-methyl-1,2,3,4-tetrahydroisoquinolin-6-yl)isoxazole-3-carboxamide], the IC50 at HSP90α (setting [2]) fell in the range of 20 to 100 nM. The EC50 in assay [1] was more than 100 nM.

For `CC(C)NC(=O)c1noc(-c2cc(C(C)C)c(O)cc2O)c1-c1ccc2c(c1)CCN(C)C2` [Example 38, 5-(2,4-dihydroxyl-5-isopropylphenyl)-N-isopropyl-4-(2-methyl-1,2,3,4-tetrahydroisoquinolin-6-yl)isoxazole-3-carboxamide], at HSP90α (setting [2]), the IC50 fell in the range of 20 to 100 nM. The EC50 in assay [1] was in the range of 20 to 100 nM.

For `Cc1nnc(-c2noc(-c3cc(C(C)C)c(O)cc3O)c2-c2ccc3c(c2)CCN(C)C3)[nH]1` [Example 15, 4-isopropyl-6-[4-(2-methyl-1,2,3,4-tetrahydroisoquinolin-6-yl)-3-(5-methyl-4H-1,2,4-triazol-3-yl)isoxazol-5-yl]benzene-1,3-diol], the IC50 at HSP90α (setting [2]) was in the range of 20 to 100 nM. In assay [1], this compound returned an EC50 of more than 100 nM.

Regarding `CCCN1CCc2cc(-c3c(C(=O)NCC)noc3-c3cc(C(C)C)c(O)cc3O)ccc2C1` [Example 50, 5-(2,4-dihydroxyl-5-isopropylphenyl)-N-ethyl-4-(2-propyl-1,2,3,4-tetrahydroisoquinolin-6-yl)isoxazole-3-carboxamide], the IC50 at HSP90α (setting [2]) is 20 to 100 nM. The compound also returned an EC50 in assay [1] of less than 20 nM.
